In patent US20250171434A1, “SEC61 INHIBITORS AND USE THEREOF” (KEZAR LIFE SCIENCES, INC., priority 2022, published 2025):
pEC50, pIC50: −log10 of the molar value. Like-named read-outs stand apart in the source and are kept apart here.

Legend:
[1] = Liver Microsome Stability Assay, monkey; assay type: in vitro ADME; conditions: monkey liver microsomes 1.0 mg/mL, 1.0 uM compound, 37° C., 1 mM NADPH
Summary of the method: (§1)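 1.0 uM cpd, 0.4% DMSO, 1.0 mg/mL microsomes, 0.1 M KPi, 37° C, ±1 mM NADPH; quench 0 and 30 min.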

[2] = system: multiple myeloma cell line U266B1; experiment: U266 Cell Viability Assay; assay type: cell-based; conditions: Homo sapiens; for pEC50: U-266, U266B1 cells, 48 hours, Celltiter-Glo, read-out: 48 hr U266 Viability Celltiter-Glo: Mean EC50
Summary of the method: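 After growth in serum-supplemented RPMI 1640, cells received serially diluted compound in DMSO/media and were kept 48 hours before a CellTiter-Glo luminescence readout.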

[3] = system: PD1-ss+10aa/Gaussia Luciferase; experiment: Dox-Induced PD1-ss-Gluc Assay; assay type: cell-based
Summary of the method: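 The cell line was made by transfecting Flp-In 293 T-REx cells with a PD1 signal sequence+10aa–Gaussia luciferase fusion under T-REx control and selecting with hygromycin and blasticidin. Cells were seeded, and next day compound plus doxycycline was added at 37 °C, 5% CO2.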

[4] = Liver Microsome Stability Assay, rat; assay type: in vitro ADME; conditions: rat liver microsomes 1.0 mg/mL, 1.0 uM compound, 37° C., 1 mM NADPH
Summary of the method: as §1

[5] = Liver Microsome Stability Assay, human; assay type: in vitro ADME; conditions: human liver microsomes 1.0 mg/mL, 1.0 uM compound, 37° C., 1 mM NADPH
Summary of the method: as §1

[6] = system: IL-2-FL/Gaussia Luciferase; experiment: Dox Inducible IL2-FL-Gluc Assay; assay type: cell-based
Summary of the method: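 A hygromycin- and blasticidin-resistant 293 T-REx clone carrying inducible IL-2–Gaussia luciferase (full-length IL-2, residues 1-153) serves as the cell system. After overnight plating, the cells get test compounds together with doxycycline in DMSO/media and are incubated at 37° C, 5% CO2.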

[7] = system: multiple myeloma cell line NCI-H929; experiment: H929 Cell Viability Assay; assay type: cell-based, human; conditions: Homo sapiens; for pEC50: NCI-H929 cells, 48 hours, Celltiter-Glo, read-out: 48 hr H929 Viability Celltiter-Glo: Mean EC50
Summary of the method: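 A 48-hour compound treatment of cells in 10% FBS RPMI medium was followed by luciferase-based viability quantification.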

[8] = system: IL6R-ss+10aa/Gaussia Luciferase; experiment: Dox-induced IL-6R-ss-Gluc Assay; assay type: cell-based
Summary of the method: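 Flp-In 293 T-REx cells stably carrying a doxycycline-inducible IL6R signal sequence+10 aa fused to Gaussia luciferase. Cells plated the day before; compound dilutions added in DMSO/media containing doxycycline and incubated at 37 °C, 5% CO2.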

[9] = Liver Microsome Stability Assay, mouse; assay type: in vitro ADME; conditions: mouse liver microsomes 1.0 mg/mL, 1.0 uM compound, 37° C., 1 mM NADPH
Summary of the method: as §1

CD47(ss + 10)Gluc = experiment: Dox-Induced CD47-ss-Gluc Assay; assay type: cell-based
[10] = ratio of IC50s IL2/PD1; Table 1
[11] = ratio of IC50s IL6R/PD1; Table 1
[12] = Flp-In 293 T-REx cells, 24 hours with doxycycline; Table 1; read-out: 24 hr Dox Inducible PD1ssGluc 293FRT/TO: Mean IC50
[13] = Flp-In 293 T-REx cells, 24 hours with doxycycline; Table 1; read-out: 24 hr Dox Inducible IL2FLGluc 293FRT/TO: Mean IC50
[14] = Flp-In 293 T-REx cells, 24 hours with doxycycline; Table 1; read-out: 24hr Dox Inducible IL6R(ss + 10)Gluc 293FRT/TO: Mean IC50
[15] = Flp-In 293 T-REx cells, 24 hours with doxycycline; Table 1; read-out: 24 hr Dox Inducible CD47(ss + 10)Gluc 293FRT/TO: Mean IC50

Compound | Liver Microsome Stability (Multiple Species): Monkey - % Remaining after 30 min w/ NADPH (%) [1] | EC50 ([2]; U-266, 48 h, read-out: 48 hr U266 Viability Celltiter-Glo: Mean EC50 (nM)) | pIC50 ([3]; read-out: 24 hr Dox Inducible PD1ssGluc 293FRT/TO: Mean IC50; Flp-In 293 T-REx cells, 24 hours with doxycycline; Table 1) | Liver Microsome Stability (Multiple Species): Rat - % Remaining after 30 min w/ NADPH (%) [4] | Liver Microsome Stability (Multiple Species): Human - % Remaining after 30 min w/ NADPH (%) [5] | 24 hr Dox Inducible IL2FLGluc 293FRT/TO: IL2/PD1 [6, 10] | pIC50 ([6]; read-out: 24 hr Dox Inducible IL2FLGluc 293FRT/TO: Mean IC50; Flp-In 293 T-REx cells, 24 hours with doxycycline; Table 1) | EC50 ([7]; NCI-H929, 48 h, read-out: 48 hr H929 Viability Celltiter-Glo: Mean EC50 (nM)) | 24hr Dox Inducible IL6R(ss + 10)Gluc 293FRT/TO: IL6R/PD1 [8, 11] | pIC50 ([8]; read-out: 24hr Dox Inducible IL6R(ss + 10)Gluc 293FRT/TO: Mean IC50; Flp-In 293 T-REx cells, 24 hours with doxycycline; Table 1) | Liver Microsome Stability (Multiple Species): Mouse - % Remaining after 30 min w/ NADPH (%) [9] | pIC50 (CD47(ss + 10)Gluc; read-out: 24 hr Dox Inducible CD47(ss + 10)Gluc 293FRT/TO: Mean IC50; Flp-In 293 T-REx cells, 24 hours with doxycycline; Table 1) | pEC50 [2] | pIC50 [3, 12] | pIC50 [6, 13] | pEC50 [7] | pIC50 [8, 14] | pIC50 (CD47(ss + 10)Gluc; [15])
O=C(Nc1nc(/C=C/c2cn(C(F)F)cn2)cs1)c1cc(Cl)cn1Cc1ccnc(F)c1 [Compound A5, (E)-4-chloro-N-(4-(2-(1-(difluoromethyl)-1H-imidazol-4-yl)vinyl)thiazol-2-yl)-1-((2-fluoropyridin-4-yl)methyl)-1H-pyrrole-2-carboxamide] | 2% | 16800 nM | 6.36 | 42% | 4% | >57 | < 4.60 | 10100 nM | >57 | < 4.60 | 73% | < 4.60 |  |  |  |  |  | 
CC(C)n1cnc(/C=C/c2csc(NC(=O)c3cc(OC(F)F)cn3Cc3ccnc(F)c3)n2)c1Cl [Compound A7, (E)-N-(4-(2-(5-chloro-1-isopropyl-1H-imidazol-4-yl)vinyl)thiazol-2-yl)-4-(difluoromethoxy)-1-((2-fluoropyridin-4-yl)methyl)-1H-pyrrole-2-carboxamide] | 55% |  |  | 84% | 64% | 200 |  |  | 176 |  | 82% |  | < 4.60 | 7.85 | 5.57 | 4.71 | 5.61 | 5.68
COc1cc(C(=O)Nc2nc(/C(F)=C/c3cn(C(C)C)cn3)cs2)n(Cc2ccnc(F)c2)c1 [Compound A9, (Z)-N-(4-(1-fluoro-2-(1-isopropyl-1H-imidazol-4-yl)vinyl)thiazol-2-yl)-1-((2-fluoropyridin-4-yl)methyl)-4-methoxy-1H-pyrrole-2-carboxamide] | 9% |  |  | 66% | 11% |  |  |  |  |  | 64% |  | < 4.60 | < 4.60 | < 4.60 | < 4.60 | < 4.60 | < 4.60
O=C(Nc1nc(/C=C/c2ncn(C3CC3)c2Cl)cs1)c1cc(C(F)(F)F)cn1Cc1ccnc(F)c1 [Compound A30, (E)-N-(4-(2-(5-chloro-1-cyclopropyl-1H-imidazol-4-yl)vinyl)thiazol-2-yl)-1-((2-fluoropyridin-4-yl)methyl)-4-(trifluoromethyl)-1H-pyrrole-2-carboxamide] | 70% |  |  | <1% | 63% | 290.0 |  |  | 292 |  | 44% |  | < 4.60 | 8.15 | 5.67 | < 4.60 | 5.66 | 5.62
O=C(Nc1nc(/C=C/c2ncn(C3CC3)c2Cl)cs1)c1cc(C(F)F)cn1Cc1ccnc(F)c1 [Compound A29, (E)-N-(4-(2-(5-chloro-1-cyclopropyl-1H-imidazol-4-yl)vinyl)thiazol-2-yl)-4-(difluoromethyl)-1-((2-fluoropyridin-4-yl)methyl)-1H-pyrrole-2-carboxamide] | 43% |  |  | 1% | 51% | >650 |  |  | >517 |  | 21% |  | < 4.60 | 7.32 | < 4.60 | < 4.60 | < 4.60 | < 4.60
